Results taken from ChEMBL document CHEMBL5154845, “Dual-acting antitumor agents targeting the A2A adenosine receptor and histone deacetylases: Design and synthesis of 4-(furan-2-yl)-1H-pyrazolo[3,4-d]pyrimidin-6-amine derivatives” (Eur J Med Chem, 2022).

Assays:
CT26 = test: Antiproliferative activity against mouse CT26 cells after 72 hrs by CCK-8 assay; format: functional
MC-38 = test: Antiproliferative activity against mouse MC38 cells after 72 hrs by CCK-8 assay; format: functional
Adenosine receptor A2a = Adenosine receptor A2a (Homo sapiens, UniProt P29274); test: Displacement of [3H][…] from human A2AAR incubated for 60 mins by scintillation counter analysis
Chain of Adenosine receptor A2a (P29274 whole entry): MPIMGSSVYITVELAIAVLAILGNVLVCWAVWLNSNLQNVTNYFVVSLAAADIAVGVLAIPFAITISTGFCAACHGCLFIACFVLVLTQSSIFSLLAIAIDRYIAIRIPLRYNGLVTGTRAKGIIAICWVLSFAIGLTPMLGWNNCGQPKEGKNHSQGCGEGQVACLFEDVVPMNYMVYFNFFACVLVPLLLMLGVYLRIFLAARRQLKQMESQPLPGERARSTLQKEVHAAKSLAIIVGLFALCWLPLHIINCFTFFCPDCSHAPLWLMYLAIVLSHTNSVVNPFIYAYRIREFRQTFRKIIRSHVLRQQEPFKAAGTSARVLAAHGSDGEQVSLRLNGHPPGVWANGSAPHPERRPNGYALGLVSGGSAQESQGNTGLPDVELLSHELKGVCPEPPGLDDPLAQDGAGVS

Histone deacetylase 1 = Histone deacetylase 1 (Homo sapiens, UniProt Q13547); test: Inhibition of HDAC1 (unknown origin) using trypsin and LGK(Ac)-AMC as substrates incubated for 1 hr and measured by fluorescence assay
Chain of Histone deacetylase 1 (Q13547 whole entry): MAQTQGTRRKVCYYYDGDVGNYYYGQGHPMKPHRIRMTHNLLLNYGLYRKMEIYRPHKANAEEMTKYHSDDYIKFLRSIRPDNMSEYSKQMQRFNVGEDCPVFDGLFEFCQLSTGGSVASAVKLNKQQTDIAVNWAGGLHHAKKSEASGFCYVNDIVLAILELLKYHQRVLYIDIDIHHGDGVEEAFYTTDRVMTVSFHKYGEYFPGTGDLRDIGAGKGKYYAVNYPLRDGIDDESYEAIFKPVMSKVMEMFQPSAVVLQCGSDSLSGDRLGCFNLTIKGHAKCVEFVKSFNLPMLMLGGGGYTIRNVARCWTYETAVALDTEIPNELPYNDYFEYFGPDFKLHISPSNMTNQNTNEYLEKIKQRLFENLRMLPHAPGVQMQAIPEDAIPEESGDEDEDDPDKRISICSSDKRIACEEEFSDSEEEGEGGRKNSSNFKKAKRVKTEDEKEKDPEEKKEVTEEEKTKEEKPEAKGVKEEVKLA

[1] = Elimination rate constant in male ICR mouse at 20 mg/kg, po measured up to 24 hrs by LC-MS/MS analysis; format: ADME, organism-based; settings: in vivo
[2] = AUC (0 to t) in male ICR mouse at 20 mg/kg, po measured up to 24 hrs by LC-MS/MS analysis; format: ADME, organism-based; parameters: time < 24 hrs, dose 20 mg/kg, route po; settings: in vivo
Adenosine receptor A3 = target: T1, Adenosine receptor A3 (Homo sapiens, UniProt P0DMS8); test: Displacement of [3H]HEMADO from human A3AR incubated for 60 mins by scintillation counter analysis
T1 sequence (P0DMS8 whole entry): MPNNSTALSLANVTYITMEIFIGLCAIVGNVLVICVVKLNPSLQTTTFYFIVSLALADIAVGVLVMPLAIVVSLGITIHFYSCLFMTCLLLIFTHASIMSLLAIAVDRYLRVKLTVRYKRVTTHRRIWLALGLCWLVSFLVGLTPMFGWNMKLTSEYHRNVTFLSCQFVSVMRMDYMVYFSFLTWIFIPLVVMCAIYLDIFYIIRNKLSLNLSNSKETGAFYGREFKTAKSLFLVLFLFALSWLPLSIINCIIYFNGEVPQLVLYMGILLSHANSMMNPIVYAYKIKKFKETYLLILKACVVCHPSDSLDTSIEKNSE

[3] = Tmax in male ICR mouse at 20 mg/kg, po measured up to 24 hrs by LC-MS/MS analysis; format: ADME, organism-based; settings: in vivo
[4] = Mean residence time in male ICR mouse at 20 mg/kg, po measured up to 24 hrs by LC-MS/MS analysis; format: ADME, organism-based; settings: in vivo
[5] = Cmax in male ICR mouse at 20 mg/kg, po measured up to 24 hrs by LC-MS/MS analysis; format: ADME, organism-based; parameters: time < 24 hrs, dose 20 mg/kg, route po; settings: in vivo
Adenosine receptor A2b = target: T2, Adenosine receptor A2b (Homo sapiens, UniProt P29275); test: Displacement of [3H]DPCPX from human A2BAR incubated for 60 mins by scintillation counter analysis
T2 sequence (P29275 whole entry): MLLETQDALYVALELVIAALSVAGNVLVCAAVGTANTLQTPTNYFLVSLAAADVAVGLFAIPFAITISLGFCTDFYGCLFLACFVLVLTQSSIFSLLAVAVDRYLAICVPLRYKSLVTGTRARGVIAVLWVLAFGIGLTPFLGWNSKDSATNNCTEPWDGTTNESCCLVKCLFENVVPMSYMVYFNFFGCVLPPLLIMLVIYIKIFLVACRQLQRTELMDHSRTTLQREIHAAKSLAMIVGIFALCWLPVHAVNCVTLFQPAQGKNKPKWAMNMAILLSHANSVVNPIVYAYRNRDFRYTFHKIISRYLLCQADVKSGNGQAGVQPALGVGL

[6] = Half-life in male ICR mouse at 20 mg/kg, po measured up to 24 hrs by LC-MS/MS analysis; format: ADME, organism-based; settings: in vivo
Adenosine receptor A1 = target: T3, Adenosine receptor A1 (Homo sapiens, UniProt P30542); test: Displacement of [3H]DPCPX from human A1AR incubated for 60 mins by scintillation counter analysis
T3 sequence (P30542 whole entry): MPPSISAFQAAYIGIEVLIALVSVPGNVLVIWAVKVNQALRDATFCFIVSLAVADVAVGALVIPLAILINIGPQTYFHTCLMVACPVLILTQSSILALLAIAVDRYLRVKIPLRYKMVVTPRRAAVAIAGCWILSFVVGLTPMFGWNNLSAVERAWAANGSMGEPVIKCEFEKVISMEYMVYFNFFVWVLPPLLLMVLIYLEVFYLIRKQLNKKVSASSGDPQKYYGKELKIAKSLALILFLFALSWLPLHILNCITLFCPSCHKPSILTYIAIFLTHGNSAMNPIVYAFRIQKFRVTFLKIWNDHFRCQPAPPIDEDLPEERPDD

Row | GI50 (CT26) [µM] | Ki (Adenosine receptor A2a) [µM] | IC50 (Histone deacetylase 1) [µM] | Compound | GI50 (MC-38) [µM] | further results
1 | 1.77 |  |  | Nc1ccccc1NC(=O)c1ccc(CNc2nccc(-c3cccnc3)n2)cc1 [MOCETINOSTAT] | 1.64 | 
2 | 2.35 |  |  | O=C(CCCCCCC(=O)Nc1ccccc1)NO [VORINOSTAT] | 2.74 | 
3 |  | 0.436 | 0.126 | Nc1nc(-c2ccco2)c2cnn(CCc3ccc(C(=O)NO)cc3)c2n1 |  | 
4 | 5.8 | 0.0147 | 0.023 | Nc1nc(-c2ccco2)c2cnn(Cc3cccc(OCCCCCCC(=O)NO)n3)c2n1 | 5.06 | k el at 24 h [1]: 0.000131 s⁻¹; AUC(0-t) at 24 h [2]: 302 ng·h/mL; Ki (Adenosine receptor A3): > 10 µM; Tmax [3]: 0.25 h; MRT [4]: 1.16 h; Cmax [5]: 608 ng/mL; Ki (Adenosine receptor A2b): 2.5 µM; half-life [6]: 1.48 h; Ki (Adenosine receptor A1): 0.641 µM
5 |  | > 10 | 0.0111 | Nc1nc(-c2ccco2)c2cnn(CCOc3ccc(C(=O)NO)cc3)c2n1 |  | 
6 |  | 0.378 | 0.0145 | Cc1ccc(-c2nc(N)nc3c2cnn3Cc2cccc(/C=C/C(=O)NO)c2)o1 |  | 
7 | 9.13 | 0.125 | 0.127 | Cc1ccc(-c2nc(N)nc3c2cnn3CCc2ccc(C(=O)Nc3ccccc3N)cc2)o1 | 7.97 | 
8 | 13.2 | 0.0528 | 0.0425 | Cc1ccc(-c2nc(N)nc3c2cnn3Cc2cccc(OCCCCCCC(=O)NO)c2)o1 | 11.3 | 
9 |  | 0.777 | 0.0093 | Nc1nc(-c2ccco2)c2cnn(CCCCCC(=O)NO)c2n1 |  | 
10 |  | 0.863 | 0.0128 | Nc1nc(-c2ccco2)c2cnn(Cc3ccc(C(=O)NO)cc3)c2n1 |  | 
11 |  | 0.0683 | 0.192 | Nc1nc(-c2ccco2)c2cnn(Cc3cccc(OCCCCCC(=O)NO)n3)c2n1 |  | 
12 | 19.6 | 0.0743 | 0.045 | Cc1ccc(-c2nc(N)nc3c2cnn3Cc2ccc(N)c(OCCCCCCC(=O)NO)c2)o1 | 26.7 | 
13 | 9.99 | 0.0109 | 0.086 | Nc1nc(-c2ccco2)c2cnn(Cc3cccc(OCCCCCC(=O)NO)c3)c2n1 | 9.82 | 
14 |  | 3.59 | 0.0071 | Nc1nc(-c2ccco2)c2cnn(Cc3ccc(/C=C/C(=O)NO)cc3)c2n1 |  | 
15 |  | 0.863 | 0.0645 | Nc1nc(-c2ccco2)c2cnn(CCCc3ccc(C(=O)NO)cc3)c2n1 |  | 
16 | 7.68 | 0.159 | 0.0295 | Cc1ccc(-c2nc(N)nc3c2cnn3Cc2cccc(OCCCCCCC(=O)NO)n2)o1 | 6.41 | 
17 |  | 0.974 | 0.105 | Nc1nc(-c2ccco2)c2cnn(CCOc3ccc(C(=O)Nc4ccccc4N)cc3)c2n1 |  | 
18 |  | 0.0507 | 0.42 | Nc1nc(-c2ccco2)c2cnn(Cc3cccc(OCCCCC(=O)NO)n3)c2n1 |  | 
19 | 7.56 | 0.14 | 0.186 | Nc1nc(-c2ccco2)c2cnn(CCCc3ccc(C(=O)Nc4ccccc4N)cc3)c2n1 | 6.96 | 
20 |  | 2.54 | 0.014 | Cc1ccc(-c2nc(N)nc3c2cnn3Cc2ccc(C(=O)NO)cc2)o1 |  | 
21 |  | 0.617 | 0.0073 | Cc1ccc(-c2nc(N)nc3c2cnn3CCCCCC(=O)NO)o1 |  | 

Row | GI50 (CT26) [µM] | Ki (Adenosine receptor A2a) [µM] | IC50 (Histone deacetylase 1) [µM] | Compound | GI50 (MC-38) [µM] | further results
22 |  | 0.276 | 0.0093 | Nc1nc(-c2ccco2)c2cnn(CCCCCCCC(=O)NO)c2n1 |  | 
23 | 33 | 0.301 | 0.0024 | Nc1nc(-c2ccco2)c2cnn(CCCCCCC(=O)NO)c2n1 | 0.35 | 
24 |  | 0.585 | 0.0072 | Cc1ccc(-c2nc(N)nc3c2cnn3CCCCCCCC(=O)NO)o1 |  | 
25 |  | 1.56 | 0.394 | Nc1nc(-c2ccco2)c2cnn(CCCCC(=O)NO)c2n1 |  | 
26 | 18.9 | 0.0123 | 0.095 | Cc1ccc(-c2nc(N)nc3c2cnn3Cc2cccc(OCCCCCC(=O)NO)c2)o1 | 23.2 | 
27 |  | > 10 | 0.116 | Nc1nc(-c2ccco2)c2cnn(Cc3ccc(/C=C/C(=O)Nc4ccccc4N)cc3)c2n1 |  | 
28 |  | 0.025 | 2.53 | Cc1ccc(-c2nc(N)nc3c2cnn3Cc2cccc(/C=C/C(=O)Nc3ccccc3N)c2)o1 |  | 
29 |  | 1.83 | 0.228 | Cc1ccc(-c2nc(N)nc3c2cnn3CCCCC(=O)NO)o1 |  | 
30 | 2.32 | 0.13 | 0.0084 | Nc1nc(-c2ccco2)c2cnn(Cc3cccc(/C=C/C(=O)NO)c3)c2n1 | 1.91 | k el at 24 h [1]: 2.69e-05 s⁻¹; AUC(0-t) at 24 h [2]: 182 ng·h/mL; Tmax [3]: 0.25 h; MRT [4]: 9.54 h; Cmax [5]: 122 ng/mL; half-life [6]: 7.53 h
31 |  | 1.72 | 0.0175 | Nc1nc(-c2ccco2)c2cnn(Cc3ccc(C(=O)Nc4ccccc4N)cc3)c2n1 |  | 
32 |  | 0.0259 | 0.206 | Cc1ccc(-c2nc(N)nc3c2cnn3Cc2cccc(OCCCCC(=O)NO)c2)o1 |  | 
33 |  | 0.0728 | 0.21 | Cc1ccc(-c2nc(N)nc3c2cnn3Cc2cccc(OCCCCCC(=O)NO)n2)o1 |  | 
34 |  | > 10 | 0.045 | Cc1ccc(-c2nc(N)nc3c2cnn3Cc2ccc(C(=O)Nc3ccccc3N)cc2)o1 |  | 
35 |  | 0.0358 | 1.18 | Nc1nc(-c2ccco2)c2cnn(Cc3cccc(/C=C/C(=O)Nc4ccccc4N)c3)c2n1 |  | 
36 |  | 0.0073 | 0.151 | Nc1nc(-c2ccco2)c2cnn(Cc3cccc(OCCCCC(=O)NO)c3)c2n1 |  | 
37 |  | 0.107 | 0.226 | Cc1ccc(-c2nc(N)nc3c2cnn3CCCOc2ccc(C(=O)Nc3ccccc3N)cc2)o1 |  | 
38 | 22.8 | 0.015 | 0.037 | Nc1nc(-c2ccco2)c2cnn(Cc3ccc(N)c(OCCCCCCC(=O)NO)c3)c2n1 | 28.2 | 
39 |  | 0.334 | 0.0022 | Cc1ccc(-c2nc(N)nc3c2cnn3CCCCCCC(=O)NO)o1 |  | 
40 |  | 0.295 | 0.0735 | Cc1ccc(-c2nc(N)nc3c2cnn3CCc2ccc(C(=O)NO)cc2)o1 |  | 
41 |  | 0.072 | 0.573 | Cc1ccc(-c2nc(N)nc3c2cnn3Cc2cccc(OCCCCC(=O)NO)n2)o1 |  | 
42 | > 30 | 0.147 | 0.19 | Nc1nc(-c2ccco2)c2cnn(CCCOc3ccc(C(=O)Nc4ccccc4N)cc3)c2n1 | > 30 | 
